In patent US9493444B2 (Merck Patent GmbH, priority 2012, dated 2016) one finds IC50 data, which are given here for 28 compounds.

The subject of the experiment is Wnt pathway (TCF-dependent transcription in HEK293 luciferase reporter cell line with ER-DSH construct). Kind of experiment: Cellular assay for Wnt pathway activity (luciferase reporter). The experiment is classed as cell-based. To be noted: Homo sapiens; Wnt pathway inhibition, HEK293 luciferase reporter cells (ER-DSH, TCF promoter), 24 hours incubation, estrogen-induced. Here is the method:
1. Cellular Assay for Wnt Pathway Activity
Compounds were tested for their Wnt pathway inhibitory activities using a luciferase reporter cell based assay. A HEK293 luciferase reporter cell line was used which contained an Estrogen Receptor-Dishevelled (ER-DSH) construct and a T-Cell Factor (TCF) dependent gene promoter luciferase construct.
Compounds, in concentrations from 30 μM down to 1 nM, were incubated for 24 hours on the cells, which were induced for TCF-dependent transcription by the addition of estrogen (10). Luciferase activities were determined using the ONE GLO Luciferase Assay System (Promega) and the ENVISION microplate reader (Perkin Elmer). For analysis, the obtained data were normalized against the untreated vehicle control and fitted for determination of the IC50 values using the Assay Explorer software (Accelrys).
(In general: Reporter assays use an easily measured gene product as a stand-in for the process of interest.)
With `CC(=O)N(C)CCN(C)c1cncc(Oc2ccc(-c3cccc(N4CCN(C)CC4)n3)cc2)n1` [Compound 12], the IC50 was less than 200 nM.
Then `COc1ccc(Oc2cncc(N(C)CCN(C)C(C)=O)n2)cc1` [Compound 30, N-(2-{[6-(4-Methoxy-phenoxy)-pyrazin-2-yl]-methyl-amino}-ethyl)-N-methyl-acetamide], with 200 to 1000 nM; and `CC(=O)N(C)CCNc1cncc(Oc2ccc(-c3ccncc3C#N)cc2F)n1` [Compound 257, N-(2-{6-[4-(3-Cyano-pyridin-4-yl)-2-fluoro-phenoxy]-pyrazin-2-ylamino}-ethyl)-N-methyl-acetamide], with 200 to 1000 nM; and `CC(=O)N(C)CCN(C)c1cncc(Oc2ccc(/C=C/c3ccccn3)cc2)n1` [Compound 145, N-Methyl-N-[2-(methyl-{6-[4-((E)-2-pyridin-2-yl-vinyl)-phenoxy]-pyrazin-2-yl}-amino)-ethyl]-acetamide], with less than 200 nM.
Regarding `CC(=O)N(C)CCN(C)c1cncc(OC2CCCCC2)n1` [Compound 48, N-{2-[(6-Cyclo-hexyloxy-pyrazin-2-yl)-methyl-amino]-ethyl}-N-methyl-acetamide], the IC50 lay within 1000 to 10000 nM.
Then `CC(=O)N(C)CCN(C)c1cncc(Oc2ccc(C(C)(C)C)cc2)n1` [Compound 85, N-(2-{[6-(4-tert-Butyl-phenoxy)-pyrazin-2-yl]-methyl-amino}-ethyl)-N-methyl-acetamide], with less than 200 nM; and `CC(=O)N(C)CCN(C)c1cncc(Oc2ccc(-c3cccc(N4CCN(C)CC4)n3)cc2F)n1` [Compound 253, N-{2-[(6-{2-Fluoro-4-[6-(4-methyl-piperazin-1-yl)-pyridin-2-yl]-phenoxy}-pyrazin-2-yl)-methyl-amino]-ethyl}-N-methyl-acetamide], with less than 200 nM.
Compound `CN(CCC(N)=O)c1cncc(Oc2ccc(F)cc2)n1` [Compound 156, 3-{[6-(4-Fluoro-phenoxy)-pyrazin-2-yl]-methyl-amino}-propion-amide] gave an IC50 of 1000 to 10000 nM.
`CC(=O)N(C)CCN(C)c1cncc(Oc2ccc(-c3cncc4[nH]ccc34)cc2)n1` [Compound 237, N-Methyl-N-[2-(methyl-{6-[4-(1H-pyrrolo[2,3-c]pyridin-4-yl)-phenoxy]-pyrazin-2-yl}-amino)-ethyl]-acetamide] returned an IC50 of 200 to 1000 nM.
The same measure for `CC(=O)N(C)CCN(C)c1cncc(Oc2ccc(S(C)(=O)=O)cc2)n1` [Compound 100, N-(2-{[6-(4-Methane-sulfonyl-phenoxy)-pyrazin-2-yl]-methyl-amino}-ethyl)-N-methyl-acetamide]: 200 to 1000 nM; for `CN(C=O)CCNc1cncc(Oc2ccc(-c3cccc(N4CCN(C)CC4)n3)cc2)n1` [Compound 311, N-Methyl-N-[2-(6-{4-[6-(4-methyl-piperazin-1-yl)-pyridin-2-yl]-phenoxy}-pyrazin-2-ylamino)-ethyl]-formamide]: 200 to 1000 nM; for `O=C1NCCN1CCNc1cncc(Oc2ccc(F)cc2)n1` [Compound 278, 1-{2-[6-(4-Fluoro-phenoxy)-pyrazin-2-ylamino]-ethyl}-imidazolidin-2-one]: 200 to 1000 nM.
Then `CCN(CCN(C)c1cncc(Oc2cccc(F)c2)n1)C(C)=O` [Compound 82, N-Ethyl-N-(2-{[6-(3-fluoro-phenoxy)-pyrazin-2-yl]-methyl-amino}-ethyl)-acetamide], with 200 to 1000 nM.
Then `CC(=O)N(C)CCCc1cncc(Oc2ccc(-c3ccc([N+](=O)[O-])cn3)cc2F)n1` [Compound 274, N-(3-{6-[2-Fluoro-4-(5-nitro-pyridin-2-yl)-phenoxy]-pyrazin-2-yl}-propyl)-N-methyl-acetamide], with 1000 to 10000 nM; and `CSc1cccc(Oc2cncc(N(C)CCN(C)C(=O)CF)n2)c1` [Compound 76, 2-Fluoro-N-methyl-N-(2-{methyl-[6-(3-methyl-sulfanyl-phenoxy)-pyrazin-2-yl]-amino}-ethyl)-acetamide], with 200 to 1000 nM.
As to `COc1ccc(Oc2cncc(NCC3CCCN3C(C)=O)n2)cc1` (stereo not shown) [Compound 57, 1-(2-{[6-(4-Methoxy-phenoxy)-pyrazin-2-ylamino]-methyl}-pyrrolidin-1-yl)-ethanone], the concentration for half-maximal inhibition (IC50) is 1000 to 10000 nM.
Then `CC(=O)N(C)CCCc1cc(Oc2ccc(-c3cccc(N4CCN(C)CC4)n3)cc2)c[n+]([O-])c1` [Compound 314, N-Methyl-N-[3-(5-{4-[6-(4-methyl-piperazin-1-yl)-pyridin-2-yl]-phenoxy}-1-oxy-pyridin-3-yl)-propyl]-acetamide], with 1000 to 10000 nM; and `CC(=O)N(C)CCN(C)c1cncc(Oc2ccc(-c3cc(C(N)=O)ccn3)cc2)n1` [Compound 192, 2-[4-(6-{[2-(Acetyl-methyl-amino)-ethyl]-methyl-amino}-pyrazin-2-yloxy)-phenyl]-isonico-tinamide], with 200 to 1000 nM.
For the compound `CNC(=O)CCCN(C)c1cncc(Oc2ccc(F)cc2)n1` [Compound 189, 4-{[6-(4-Fluoro-phenoxy)-pyrazin-2-yl]-methyl-amino}-N-methyl-butyramide], the IC50 lay within 1000 to 10000 nM.
The same measure for `COC(=O)CCc1ccc(Oc2cncc(N(C)CCN(C)C(C)=O)n2)cc1` [Compound 141, 3-[4-(6-{[2-(Acetyl-methyl-amino)-ethyl]-methyl-amino}-pyrazin-2-yloxy)-phenyl]-propionic acid methyl ester]: 1000 to 10000 nM; for `CNCc1ccc(-c2ccc(Oc3cncc(N(C)CCN(C)C(C)=O)n3)cc2)cn1` [Compound 265, N-Methyl-N-[2-(methyl-{6-[4-(6-methylaminomethyl-pyridin-3-yl)-phenoxy]-pyrazin-2-yl}-amino)-ethyl]-acetamide]: less than 200 nM; for `CC(=O)N(C)CCN(C)c1cncc(OCc2ccc(F)cc2)n1` [Compound 104, N-(2-{[6-(4-Fluoro-benzyloxy)-pyrazin-2-yl]-methyl-amino}-ethyl)-N-methyl-acetamide]: 1000 to 10000 nM.
The same measure for `CC(=O)N(C)CCN(C)c1cncc(Oc2ccc3cccnc3c2)n1` [Compound 55, N-Methyl-N-(2-{methyl-[6-(quinolin-7-yloxy)-pyrazin-2-yl]-amino}-ethyl)-acetamide]: 1000 to 10000 nM; for `CNCCN(C)c1cncc(OC2CCCCC2)n1` [Compound 46, N-(6-Cyclo-hexyloxy-pyrazin-2-yl)-N,N′-dimethyl-ethane-1,2-diamine]: 200 to 1000 nM.
The same measure for `CC(=O)N(C)CCN(C)c1cncc(Oc2ccc(Cn3nc(-c4cc(F)cc(F)c4)ccc3=O)cc2)n1` [Compound 127, N-{2-[(6-{4-[3-(3,5-Difluoro-phenyl)-6-oxo-6H-pyridazin-1-ylmethyl]-phenoxy}-pyrazin-2-yl)-methyl-amino]-ethyl}-N-methyl-acetamide]: 1000 to 10000 nM; for `CC(=O)N(C)CCN(C)c1cncc(Oc2ccc(-c3cnn(C)c3)cc2)n1` [Compound 313, N-Methyl-N-[2-(methyl-{6-[4-(1-methyl-1H-pyrazol-4-yl)-phenoxy]-pyrazin-2-yl}-amino)-ethyl]-acetamide]: less than 200 nM.
Compound `CNC(=O)CCN(C)c1cncc(Oc2ccc(F)cc2)n1` [Compound 29] registered an IC50 of 200 to 1000 nM.
The same measure for `COc1ccc(Oc2cncc(N(C)CCN(C)C(C)=O)n2)c(F)c1` [Compound 109, N-(2-{[6-(2-Fluoro-4-methoxy-phenoxy)-pyrazin-2-yl]-methyl-amino}-ethyl)-N-methyl-acetamide]: 200 to 1000 nM.

In general, IC50 refers to the midpoint of a concentration-inhibition curve.
